Experiment [1] deals with Escherichia coli. In words: Antibacterial activity against Escherichia coli ATCC 25922 after 24 hr by serial dilution method. It is filed as functional. The note with it: ATCC 25922, 24 h.
Experiment [2] concerns Bacillus subtilis. Nature of the experiment: Antibacterial activity against Bacillus subtilis ATCC 6633 after 24 hr by serial dilution method. In kind it is functional. The conditions noted are these: ATCC 6633, 24 h.
The test system of experiment [3] is MDA-MB-231. In words: Cytotoxicity against Homo sapiens (human) MDA-MB-231 cells after 72 hr by MTT assay. It is filed as functional, cell-based. The note with it: MDA-MB-231, 72 h. In general terms: Tetrazolium dyes change colour on reduction, which living cells bring about.
For experiment [4], the system named is HT-29. In words: Cytotoxicity against Homo sapiens (human) HT-29 cells after 72 hr by MTT assay. The note with it: HT-29, 72 h. It is filed as functional, cell-based.
The subject of experiment [5] is A549. In words: Cytotoxicity against Homo sapiens (human) A549 cells after 72 hr by MTT assay. It is filed as functional, cell-based. The note with it: A549, 72 h.
For experiment [6], the system named is Pseudomonas aeruginosa. In words: Antibacterial activity against Pseudomonas aeruginosa ATCC 27853 after 24 hr by serial dilution method. The note with it: ATCC 27853, 24 h. In kind it is functional.
The subject of experiment [7] is Staphylococcus aureus. In words: Antibacterial activity against Staphylococcus aureus ATCC 25923 after 24 hr by serial dilution method. In kind it is functional. The note with it: ATCC 25923, 24 h.

This passage reports MIC and IC50 results from ChEMBL document CHEMBL3046023, “Synthesis, in vitro cytotoxicity, and anti-microbial studies of 1,4-bis(4-substituted-5-mercapto-1,2,4-triazol-3-yl)butanes” (Med Chem Res, 2012).

Converted amounts (≈) assume the structure as drawn.

The MIC is the lowest concentration found to suppress growth. Low values mean inhibition by little substance, high ones a need for much substance. By IC50 is commonly meant the concentration at which inhibition is half-maximal. Lower therefore signals greater potency. With `CCCCn1c(CCCCc2nnc(SCC(=O)NN)n2CCCC)nnc1SCC(=O)NN`, the MIC in experiment [1] and in experiment [2] was 100 µg/mL (≈ 195 µM) throughout. Further, the concentration for half-maximal inhibition (IC50) stood at 59.8 µM in experiment [3], 63.4 µM in experiment [4] and 69.3 µM in experiment [5].

On to `CCOc1ccc(-n2c(CCCCc3nnc(SC(=O)N(CC)CC)n3-c3ccc(OCC)cc3)nnc2SC(=O)N(CC)CC)cc1`, for which the figures for the minimum inhibitory concentration (MIC) in experiment [1] and in experiment [2] were 100 µg/mL (≈ 144 µM) and 50 µg/mL (≈ 71.9 µM), respectively. Besides, the results for the half-maximal inhibitory concentration (IC50) in experiment [3], in experiment [4] and in experiment [5] were 71.6 µM, 75 µM and 51.9 µM, respectively.

`NNC(=O)CSc1nnc(CCCCc2nnc(SCC(=O)NN)n2-c2ccccc2)n1-c1ccccc1`: the MIC in experiment [6] worked out at 100 µg/mL (≈ 181 µM); in experiment [1], 25 µg/mL (≈ 45.2 µM); in experiment [7], 25 µg/mL (≈ 45.2 µM); in experiment [2], 25 µg/mL (≈ 45.2 µM). In addition, the IC50 in experiment [3] was 69.9 µM; in experiment [4], 65.3 µM; in experiment [5], 63.2 µM.

Regarding `CCOC(=O)CSc1nnc(CCCCc2nnc(SCC(=O)OCC)n2C2CCCCC2)n1C1CCCCC1`, the MIC in experiment [1] and in experiment [2] was 100 µg/mL (≈ 169 µM) throughout. The 50% inhibitory concentration (IC50) in experiment [3] is 70.4 µM; in experiment [4] it was 65.3 µM; in experiment [5] it was 51.9 µM.

Consider `CCN(CC)C(=O)Sc1nnc(CCCCc2nnc(SC(=O)N(CC)CC)n2-c2cccc(C)c2)n1-c1cccc(C)c1`, for which the MIC in experiment [6] is 25 µg/mL (≈ 39.4 µM); in experiment [1] it was 12.5 µg/mL (≈ 19.7 µM); in experiment [7], 50 µg/mL (≈ 78.8 µM); in experiment [2], 25 µg/mL (≈ 39.4 µM). The results for the IC50 in experiment [3], in experiment [4] and in experiment [5] were 17.2 µM, 10.2 µM and 15.2 µM, respectively.

`CCCCn1c(CCCCc2nnc(SCC(=O)OCC)n2CCCC)nnc1SCC(=O)OCC`: the MIC in experiment [1] and in experiment [2] was 100 µg/mL (≈ 185 µM) throughout. Also, the 50% inhibitory concentration (IC50) in experiment [3] turned out to be 71.4 µM; in experiment [4], 69.8 µM; in experiment [5] it was 61.5 µM.

In the case of `CCOC(=O)CSc1nnc(CCCCc2nnc(SCC(=O)OCC)n2-c2ccc(C)cc2)n1-c1ccc(C)cc1`, the MIC in experiment [6], in experiment [1], in experiment [7] and in experiment [2] was 100 µg/mL (≈ 164 µM) each time. For the same molecule, the values for the IC50 in experiment [3], in experiment [4] and in experiment [5] were 24.3 µM, 13.5 µM and 9.13 µM, respectively.

On to `Cc1ccc(-n2c(CCCCc3nnc(SCC(=O)NN)n3-c3ccc(C)cc3)nnc2SCC(=O)NN)cc1`, for which the MIC in experiment [6] was determined as 100 µg/mL (≈ 172 µM); in experiment [1], 12.5 µg/mL (≈ 21.5 µM); in experiment [7] it was 12.5 µg/mL (≈ 21.5 µM); in experiment [2] it was 12.5 µg/mL (≈ 21.5 µM). In addition, the half-inhibitory concentration (IC50) in experiment [3] came to 32.2 µM; in experiment [4] it was 31.2 µM; in experiment [5], 36.9 µM.

As for `CCCCn1c(CCCCc2nnc(SC(=O)N(CC)CC)n2CCCC)nnc1SC(=O)N(CC)CC`, the figures for the concentration for half-maximal inhibition (IC50) in experiment [3], in experiment [4] and in experiment [5] were 70.3 µM, 64.5 µM and 63.1 µM, respectively.

As to `COc1cccc2c1C(=O)c1c(O)c3c(c(O)c1C2=O)C[C@@](O)(C(=O)CO)C[C@@H]3O[C@H]1C[C@H](N)[C@H](O)[C@H](C)O1` [DOXORUBICIN], the concentration for half-maximal inhibition (IC50) in experiment [3] was 0.1 µM; in experiment [4], 0.07 µM; in experiment [5], 0.09 µM.

`CCOC(=O)CSc1nnc(CCCCc2nnc(SCC(=O)OCC)n2-c2ccccc2)n1-c1ccccc1`: the minimal inhibitory concentration (MIC) turned out to be 100 µg/mL (≈ 172 µM) in experiment [6], 50 µg/mL (≈ 86.1 µM) in experiment [1], 100 µg/mL (≈ 172 µM) in experiment [7] and 100 µg/mL (≈ 172 µM) in experiment [2]. In addition, the IC50 in experiment [3] turned out to be 32.2 µM; in experiment [4] it was 51.2 µM; in experiment [5] it was 34.5 µM.

As to `CCOc1ccc(-n2c(CCCCc3nnc(SCC(=O)NN)n3-c3ccc(OCC)cc3)nnc2SCC(=O)NN)cc1`, the MIC in experiment [6] was 12.5 µg/mL (≈ 19.5 µM); in experiment [1], 12.5 µg/mL (≈ 19.5 µM); in experiment [7] it was 12.5 µg/mL (≈ 19.5 µM); in experiment [2] it was 6.25 µg/mL (≈ 9.75 µM). In addition, the half-inhibitory concentration (IC50) in experiment [3] was 13.2 µM; in experiment [4], 5.16 µM; in experiment [5] it was 9.13 µM.

For `CCN(CC)C(=O)Sc1nnc(CCCCc2nnc(SC(=O)N(CC)CC)n2-c2ccccc2)n1-c1ccccc1`, the minimum inhibitory concentration (MIC) in experiment [6] was 50 µg/mL (≈ 82.4 µM); in experiment [1], 12.5 µg/mL (≈ 20.6 µM); in experiment [7], 50 µg/mL (≈ 82.4 µM); in experiment [2], 25 µg/mL (≈ 41.2 µM). The half-inhibitory concentration (IC50) in experiment [3] was 14.9 µM; in experiment [4], 14.3 µM; in experiment [5], 19.3 µM.

For `CCOC(=O)CSc1nnc(CCCCc2nnc(SCC(=O)OCC)n2-c2ccc(OCC)cc2)n1-c1ccc(OCC)cc1`, the minimum inhibitory concentration (MIC) in experiment [6] is 100 µg/mL (≈ 150 µM); in experiment [1], 25 µg/mL (≈ 37.4 µM); in experiment [7], 50 µg/mL (≈ 74.8 µM); in experiment [2], 25 µg/mL (≈ 37.4 µM). The half-maximal inhibitory concentration (IC50) stood at 15.1 µM in experiment [3], 13.2 µM in experiment [4] and 9.3 µM in experiment [5].

As to `Cc1cccc(-n2c(CCCCc3nnc(SCC(=O)NN)n3-c3cccc(C)c3)nnc2SCC(=O)NN)c1`, the MIC in experiment [1], in experiment [7] and in experiment [2] was 25 µg/mL (≈ 43 µM) throughout. Moreover, the half-maximal inhibitory concentration (IC50) in experiment [3] is 40.2 µM; in experiment [4] it was 38.2 µM; in experiment [5], 39.1 µM.

`CCN(CC)C(=O)Sc1nnc(CCCCc2nnc(SC(=O)N(CC)CC)n2C2CCCCC2)n1C1CCCCC1`: the MIC in experiment [1] and in experiment [2] was 100 µg/mL (≈ 162 µM) throughout. Besides, the half-inhibitory concentration (IC50) amounted to 66.2 µM in experiment [3], 69.9 µM in experiment [4] and 51.8 µM in experiment [5].

As for `CCOC(=O)CSc1nnc(CCCCc2nnc(SCC(=O)OCC)n2-c2cccc(C)c2)n1-c1cccc(C)c1`, the minimal inhibitory concentration (MIC) in experiment [6] came out at 100 µg/mL (≈ 164 µM); in experiment [1], 50 µg/mL (≈ 82.1 µM); in experiment [7] it was 100 µg/mL (≈ 164 µM); in experiment [2], 50 µg/mL (≈ 82.1 µM). Also, the results for the IC50 in experiment [3], in experiment [4] and in experiment [5] were 25.2 µM, 25.8 µM and 23.3 µM, respectively.

With `CCN(CC)C(=O)Sc1nnc(CCCCc2nnc(SC(=O)N(CC)CC)n2-c2ccc(C)cc2)n1-c1ccc(C)cc1`, the MIC was determined as 25 µg/mL (≈ 39.4 µM) in experiment [6], 12.5 µg/mL (≈ 19.7 µM) in experiment [1], 25 µg/mL (≈ 39.4 µM) in experiment [7] and 12.5 µg/mL (≈ 19.7 µM) in experiment [2]. The half-maximal inhibitory concentration (IC50) came out at 8.17 µM in experiment [3], 3.45 µM in experiment [4] and 3.23 µM in experiment [5].

Regarding `CC1(C)S[C@@H]2[C@H](NC(=O)[C@H](N)c3ccccc3)C(=O)N2[C@H]1C(=O)O` [AMPICILLIN], the minimal inhibitory concentration (MIC) in experiment [6] is 12.5 µg/mL (≈ 35.8 µM); in experiment [1] it was 6.25 µg/mL (≈ 17.9 µM); in experiment [7], 6.25 µg/mL (≈ 17.9 µM); in experiment [2], 12.5 µg/mL (≈ 35.8 µM).

For the molecule `NNC(=O)CSc1nnc(CCCCc2nnc(SCC(=O)NN)n2C2CCCCC2)n1C1CCCCC1`, the minimal inhibitory concentration (MIC) in experiment [1] is 50 µg/mL (≈ 88.5 µM); in experiment [2], 100 µg/mL (≈ 177 µM). The half-inhibitory concentration (IC50) in experiment [3] came to 70.2 µM; in experiment [4], 66.2 µM; in experiment [5] it was 65.3 µM.
